Measured values taken from patent US10538555B2, “Macrocyclic inhibitors of the PD-1/PD-L1 and CD80(B7-1)/PD-L1 protein/protein interactions” (BRISTOL-MYERS SQUIBB COMPANY, priority 2014, dated 2020).
*1 amine or outer side, *2 acyl side, *3 side chain or, on linkers, in order; H or OH if unused. Where a SMILES comes first, the peptide text is derived from it. Bridges are numbered along the chain shown (N, C = ends). [ ]: non-standard residue; d: D form. ξ: configuration not given here. Trp(1-CH2COOH) = N[C@@H](Cc1cn(CC(=O)O)c2ccccc12)C(=O)O; Phe(3,4,5-F3) = N[C@@H](Cc1cc(F)c(F)c(F)c1)C(=O)O; Phe(3,4-F2) = N[C@@H](Cc1ccc(F)c(F)c1)C(=O)O; ξTrp(7-aza) = NC(Cc1c[nH]c2ncccc12)C(=O)O; Phe(4-F) = N[C@@H](Cc1ccc(F)cc1)C(=O)O; Phe(4-Me) = Cc1ccc(C[C@H](N)C(=O)O)cc1; d(cisHyp) = O=C(O)[C@H]1C[C@@H](O)CN1; Phe(2-F) = N[C@@H](Cc1ccccc1F)C(=O)O; Bta = N[C@@H](Cc1csc2ccccc12)C(=O)O; NMeIle(3ξ) = CCC(C)[C@H](NC)C(=O)O; Hyp = O=C(O)[C@@H]1C[C@@H](O)CN1; NMeF = CN[C@@H](Cc1ccccc1)C(=O)O; X1 = O=C([C@H]1COCCN1[*:1])[*:2]; dNMeF = CN[C@H](Cc1ccccc1)C(=O)O; Cha = N[C@@H](CC1CCCCC1)C(=O)O; NMeNle = CCCC[C@H](NC)C(=O)O; dPip = O=C(O)[C@H]1CCCCN1; hSer = N[C@@H](CCO)C(=O)O; NMeA = CN[C@@H](C)C(=O)O; Orn = NCCC[C@H](N)C(=O)O; dNMeA = CN[C@H](C)C(=O)O; dThz = O=C(O)[C@H]1CSCN1; Dab = NCC[C@H](N)C(=O)O; Dap = NC[C@H](N)C(=O)O; ξC = NC(CS)C(=O)O; Sar = CNCC(=O)O

target: T1, Human PD-L1/PD-1 (Homo sapiens, UniProt Q9NZQ7); assay: HTRF Human PD-L1/PD-1 binding assay (PD-1-Ig/PD-L1-His); details: PD-L1-His 10 nM, PD-1-Ig 20 nM; class symbol; read-out: HTRF Human PD-L1/PD-1 Binding Assay IC50 Range
T1 construct: TVMV protease cleavage site (C); made in house; host or cells: HEK293T cells
T1 sequence (Q9NZQ7 with tags, fused parts or gaps): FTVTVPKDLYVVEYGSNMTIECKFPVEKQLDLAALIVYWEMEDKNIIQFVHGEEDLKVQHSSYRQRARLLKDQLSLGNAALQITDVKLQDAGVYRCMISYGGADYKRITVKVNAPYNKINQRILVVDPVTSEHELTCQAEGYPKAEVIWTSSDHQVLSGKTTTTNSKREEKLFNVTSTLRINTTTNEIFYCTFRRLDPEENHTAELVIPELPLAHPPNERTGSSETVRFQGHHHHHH
Summary of the method: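 Inhibitors were preincubated 15 min with human PD-L1(18-239)-His (10 nM final), then PD-1(25-167)-Ig (20 nM final) was added for 15 min in dPBS/0.1% BSA/0.05% Tween-20. Eu-cryptate anti-Ig (1 nM) and APC anti-His (20 nM) were added; 665/620 nm ratio read after 30 min.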

IC50 [nM]	Structure (SMILES)
1 to 9.9	CCCC[C@H]1C(=O)N(C)[C@@H](CCCC)C(=O)N[C@@H](CCC(=O)O)C(=O)N[C@H](C(=O)NCC(N)=O)CSCC(=O)N[C@@H](Cc2ccc(O)cc2)C(=O)N(C)[C@@H](C)C(=O)N[C@@H](CC(N)=O)C(=O)N2CCC[C@H]2C(=O)N[C@@H](Cc2cnc[nH]2)C(=O)N[C@@H](CCC(N)=O)C(=O)N2C[C@H](O)C[C@H]2C(=O)N[C@@H](Cc2c[nH]c3ccccc23)C(=O)N[C@@H](CCCCN)C(=O)N[C@@H](Cc2cn(CC(=O)O)c3ccccc23)C(=O)N1C [Example 6324] ({CH2CO}-Y[NMeA]NPHQ[Hyp]WK[Trp(1-CH2COOH)][NMeNle][NMeNle]ECG-NH2; thioether N-14)
10 to 99.9	CCCC[C@H]1C(=O)N2C[C@H](O)C[C@@H]2C(=O)N[C@@H](CC(=O)O)C(=O)N[C@@H](C(C)C)C(=O)N(C)[C@@H](Cc2ccccc2)C(=O)N[C@@H](CCC(N)=O)C(=O)N2C[C@H](O)C[C@@H]2C(=O)N[C@@H](Cc2c[nH]c3ccccc23)C(=O)N[C@@H](Cc2ccc(O)cc2)C(=O)N[C@@H](CCC(=O)O)C(=O)N[C@H](C(=O)NCC(N)=O)CSCC(=O)N[C@@H](Cc2cc(F)c(F)c(F)c2)C(=O)N(C)[C@@H](Cc2ccccc2)C(=O)N1C [Example 9357] ({CH2CO}-[Phe(3,4,5-F3)][NMeF][NMeNle][d(cisHyp)]DV[NMeF]Q[d(cisHyp)]WYECG-NH2; thioether N-13)
1 to 9.9	CCCC[C@H]1C(=O)N2CSC[C@@H]2C(=O)N[C@@H](CC(=O)O)C(=O)N[C@@H](C(C)C)C(=O)N(C)[C@@H](Cc2ccccc2)C(=O)N[C@@H](Cc2ccc(O)cc2)C(=O)N2CCC[C@@H]2C(=O)N[C@@H](Cc2c[nH]c3ccccc23)C(=O)N[C@@H](Cc2ccc(O)cc2)C(=O)N[C@@H](CC(C)C)C(=O)N[C@H](C(=O)NCC(N)=O)CSCC(=O)N[C@@H](Cc2cc(F)c(F)c(F)c2)C(=O)N(C)[C@@H](Cc2ccccc2)C(=O)N1C [Example 10093] ({CH2CO}-[Phe(3,4,5-F3)][NMeF][NMeNle][dThz]DV[NMeF]Y[dP]WYLCG-NH2; thioether N-13)
10 to 99.9	CCCC[C@H]1C(=O)N(C)[C@@H](CCCC)C(=O)N[C@@H](CCC(=O)O)C(=O)N[C@H](C(=O)NCC(N)=O)CSCC(=O)N[C@@H](Cc2ccc(O)cc2)C(=O)N(C)[C@@H](C)C(=O)N[C@@H](CC(N)=O)C(=O)N2CCC[C@H]2C(=O)N[C@@H](CN)C(=O)N[C@@H](CC(C)C)C(=O)N2C[C@H](O)C[C@H]2C(=O)N[C@@H](Cc2c[nH]c3ccccc23)C(=O)N[C@@H](CO)C(=O)N[C@@H](Cc2cn(CC(=O)O)c3ccccc23)C(=O)N1C [Example 6137] ({CH2CO}-Y[NMeA]NP[Dap]L[Hyp]WS[Trp(1-CH2COOH)][NMeNle][NMeNle]ECG-NH2; thioether N-14)
1000 to 10000	CCCC[C@H]1C(=O)N[C@@H](CC(N)=O)C(=O)N2CCC[C@H]2C(=O)N[C@@H](CO)C(=O)N[C@@H](CCO)C(=O)N2C[C@H](O)C[C@H]2C(=O)N[C@@H](Cc2c[nH]c3ccccc23)C(=O)N[C@@H](CCO)C(=O)N[C@@H](Cc2c[nH]c3ccccc23)C(=O)N(C)[C@@H](C)C(=O)N(C)[C@@H](C)C(=O)N[C@@H](CCCN)C(=O)NC(C(=O)NCC(N)=O)CSCC(=O)N[C@@H](Cc2ccc(O)cc2)C(=O)N1C (stereo partly drawn) [Example 10219] ({CH2CO}-Y[NMeNle]NPS[hSer][Hyp]W[hSer]W[NMeA][NMeA][Orn][ξC]G-NH2; thioether N-14)
1 to 9.9	CCCC[C@H]1C(=O)N(C)[C@@H](CCCC)C(=O)N[C@@H](CCCNC(=N)N)C(=O)N[C@H](C(=O)NCC(N)=O)CSCC(=O)N[C@@H](Cc2ccc(C)cc2)C(=O)N(C)[C@@H](C)C(=O)N[C@@H](CC(N)=O)C(=O)N2CCC[C@H]2C(=O)N[C@@H](CN)C(=O)N[C@@H](CC(C)C)C(=O)N2C[C@H](O)C[C@H]2C(=O)N[C@@H](Cc2c[nH]c3ccccc23)C(=O)N[C@@H](CO)C(=O)N[C@@H](Cc2c[nH]c3ccccc23)C(=O)N1C [Example 7070] ({CH2CO}-[Phe(4-Me)][NMeA]NP[Dap]L[Hyp]WSW[NMeNle][NMeNle]RCG-NH2; thioether N-14)
1000 to 10000	CCCC[C@H]1C(=O)N2CCC[C@@H]2C(=O)N[C@@H](CC(=O)O)C(=O)N[C@@H](C(C)C)C(=O)N(C)[C@@H](C(C)CC)C(=O)N[C@@H](Cc2ccc(O)cc2)C(=O)N2CCCC[C@@H]2C(=O)N[C@@H](Cc2c[nH]c3ccccc23)C(=O)N[C@@H](Cc2ccc(O)cc2)C(=O)N[C@@H](CCCN)C(=O)N[C@H](C(=O)NCC(N)=O)CSCC(=O)N[C@@H](Cc2ccc(F)cc2)C(=O)N(C)[C@@H](Cc2ccccc2)C(=O)N1C (stereo partly drawn) [Example 9259] ({CH2CO}-[Phe(4-F)][NMeF][NMeNle][dP]DV[NMeIle(3ξ)]Y[dPip]WY[Orn]CG-NH2; thioether N-13)
1 to 9.9	CCCC[C@H]1C(=O)N(C)[C@@H](CCCC)C(=O)N[C@@H](CCCNC(=N)N)C(=O)N[C@H](C(=O)NCC(N)=O)CSCC(=O)N[C@@H](Cc2ccc(F)cc2)C(=O)N(C)[C@@H](C)C(=O)N[C@@H](CC(N)=O)C(=O)N2CCC[C@H]2C(=O)N[C@@H](Cc2cnc[nH]2)C(=O)N[C@@H](CCC(=O)O)C(=O)N2C[C@H](O)C[C@H]2C(=O)N[C@@H](Cc2c[nH]c3ccccc23)C(=O)N[C@@H](CCN)C(=O)N[C@@H](Cc2c[nH]c3ccccc23)C(=O)N1C [Example 7081] ({CH2CO}-[Phe(4-F)][NMeA]NPHE[Hyp]W[Dab]W[NMeNle][NMeNle]RCG-NH2; thioether N-14)
10 to 99.9	CCCC[C@H]1C(=O)N2C[C@H](O)C[C@@H]2C(=O)N[C@@H](CC(=O)O)C(=O)N[C@@H](C(C)C)C(=O)N(C)[C@@H](Cc2ccccc2)C(=O)N[C@@H](CC(=O)O)C(=O)N2C[C@H](O)C[C@@H]2C(=O)N[C@@H](Cc2c[nH]c3ccccc23)C(=O)N[C@@H](Cc2ccc(O)cc2)C(=O)N[C@@H](CCC(=O)O)C(=O)N[C@H](C(=O)NCC(N)=O)CSCC(=O)N[C@@H](Cc2cc(F)c(F)c(F)c2)C(=O)N(C)[C@@H](Cc2ccccc2)C(=O)N1C [Example 9349] ({CH2CO}-[Phe(3,4,5-F3)][NMeF][NMeNle][d(cisHyp)]DV[NMeF]D[d(cisHyp)]WYECG-NH2; thioether N-13)
1 to 9.9	CCCC[C@H]1C(=O)N(C)[C@@H](CCCC)C(=O)N[C@@H](CCCN)C(=O)NC(C(=O)NCC(N)=O)CSCC(=O)N[C@@H](Cc2ccc(O)cc2)C(=O)N(C)[C@@H](C)C(=O)N[C@@H](CC(N)=O)C(=O)N2CCC[C@H]2C(=O)N[C@@H](CC(N)=O)C(=O)N[C@@H](CC(C)C)C(=O)N2C[C@H](O)C[C@H]2C(=O)N[C@@H](Cc2c[nH]c3ccccc23)C(=O)N[C@@H](CO)C(=O)N[C@@H](Cc2csc3ccccc23)C(=O)N1C (stereo partly drawn) [Example 9158] ({CH2CO}-Y[NMeA]NPNL[Hyp]WS[Bta][NMeNle][NMeNle][Orn][ξC]G-NH2; thioether N-14)
100 to 990	CCCC[C@H]1C(=O)N(C)CC(=O)N[C@@H](CC(=O)O)C(=O)N[C@@H](C(C)C)C(=O)N(C)[C@@H](Cc2ccccc2)C(=O)N[C@@H](Cc2ccc(O)cc2)C(=O)N(C)CC(=O)NC(Cc2c[nH]c3ncccc23)C(=O)N[C@@H](Cc2ccc(O)cc2)C(=O)N[C@@H](CC(C)C)C(=O)N[C@H](C(=O)NCC(N)=O)CSCC(=O)N[C@@H](CC2CCCCC2)C(=O)N(C)[C@@H](Cc2ccccc2)C(=O)N1C (stereo partly drawn) [Example 3240] ({CH2CO}-[Cha][NMeF][NMeNle][Sar]DV[NMeF]Y[Sar][ξTrp(7-aza)]YLCG-NH2; thioether N-13)
1 to 9.9	CCCC[C@H]1C(=O)N2C[C@H](O)C[C@@H]2C(=O)N[C@@H](CC(=O)O)C(=O)N[C@@H](C(C)C)C(=O)N(C)[C@H](Cc2ccccc2)C(=O)N[C@@H](CC(=O)O)C(=O)N2C[C@H](O)C[C@@H]2C(=O)N[C@@H](Cc2c[nH]c3ccccc23)C(=O)N[C@@H](Cc2ccc(O)cc2)C(=O)N[C@@H](CCCN)C(=O)N[C@H](C(=O)NCC(N)=O)CSCC(=O)N[C@@H](Cc2ccc(F)c(F)c2)C(=O)N(C)[C@@H](Cc2ccccc2)C(=O)N1C [Example 9301] ({CH2CO}-[Phe(3,4-F2)][NMeF][NMeNle][d(cisHyp)]DV[dNMeF]D[d(cisHyp)]WY[Orn]CG-NH2; thioether N-13)
1 to 9.9	CCCC[C@H]1C(=O)N2C[C@H](O)C[C@@H]2C(=O)N[C@@H](CC(=O)O)C(=O)N[C@@H](C(C)C)C(=O)N(C)[C@@H](Cc2ccccc2)C(=O)N[C@@H](Cc2ccc(O)cc2)C(=O)N2CCOC[C@@H]2C(=O)N[C@@H](Cc2c[nH]c3ccccc23)C(=O)N[C@@H](Cc2ccccc2F)C(=O)N[C@@H](CC(C)C)C(=O)N[C@H](C(=O)NCC(N)=O)CSCC(=O)N[C@@H](Cc2cc(F)c(F)c(F)c2)C(=O)N(C)[C@@H](Cc2ccccc2)C(=O)N1C [Example 10195] ({CH2CO}-[Phe(3,4,5-F3)][NMeF][NMeNle][d(cisHyp)]DV[NMeF]Y[X1]W[Phe(2-F)]LCG-NH2; thioether N-13)

same assay, conditions: PD-L1-His 10 nM, PD-1-Ig 20 nM; read-out: HTRF Human PD-L1/PD-1 Binding Assay IC50

IC50 [nM]	Structure (SMILES)
63.4	CCCC[C@H]1C(=O)N(C)[C@@H](CCCC)C(=O)N[C@@H](CCCNC(=N)N)C(=O)NC(C(=O)NCC(N)=O)CSCC(=O)N[C@@H](Cc2ccc(O)cc2)C(=O)N(C)[C@@H](C)C(=O)N[C@@H](CC(N)=O)C(=O)N2CCC[C@H]2C(=O)N[C@@H](CC(N)=O)C(=O)N[C@@H](CC(N)=O)C(=O)N2CCC[C@H]2C(=O)N[C@@H](Cc2c[nH]c3ccccc23)C(=O)N[C@@H](CO)C(=O)N[C@@H](Cc2c[nH]c3ccccc23)C(=O)N1C (stereo partly drawn) [Example 10013] ({CH2CO}-Y[NMeA]NPNNPWSW[NMeNle][NMeNle]R[ξC]G-NH2; thioether N-14)
14	CC(C)C[C@@H]1NC(=O)[C@H](Cc2ccc(O)cc2)NC(=O)[C@H](Cc2c[nH]c3ccccc23)NC(=O)[C@@H](C)N(C)C(=O)[C@H](Cc2ccc(O)cc2)NC(=O)[C@H](Cc2ccccc2)N(C)C(=O)[C@H](C(C)C)NC(=O)[C@H](CCO)NC(=O)[C@@H](C)N(C)C(=O)[C@H](C)N(C)C(=O)[C@H](Cc2ccccc2)N(C)C(=O)[C@H](Cc2cc(F)c(F)c(F)c2)NC(=O)CSC[C@@H](C(=O)NCC(N)=O)NC1=O [Example 9192] ({CH2CO}-[Phe(3,4,5-F3)][NMeF][NMeA][dNMeA][hSer]V[NMeF]Y[dNMeA]WYLCG-NH2; thioether N-13)
